The results in this text go back to US20250026746A1, “ENHANCERS OF PARTICULATE GUANYLYL CYCLASE RECEPTOR A” (Mayo Foundation for Medical Education and Research, priority 2021, published 2025).

Test [1] concerns the target T1, extracellular domain human GC-A recombinant protein (Homo sapiens, UniProt P16066).
T1 construct: extracellular domain human GC-A recombinant protein; purchased My BioSource, Inc. San Diego, CA
T1 sequence (P16066 33-473 limits assumed): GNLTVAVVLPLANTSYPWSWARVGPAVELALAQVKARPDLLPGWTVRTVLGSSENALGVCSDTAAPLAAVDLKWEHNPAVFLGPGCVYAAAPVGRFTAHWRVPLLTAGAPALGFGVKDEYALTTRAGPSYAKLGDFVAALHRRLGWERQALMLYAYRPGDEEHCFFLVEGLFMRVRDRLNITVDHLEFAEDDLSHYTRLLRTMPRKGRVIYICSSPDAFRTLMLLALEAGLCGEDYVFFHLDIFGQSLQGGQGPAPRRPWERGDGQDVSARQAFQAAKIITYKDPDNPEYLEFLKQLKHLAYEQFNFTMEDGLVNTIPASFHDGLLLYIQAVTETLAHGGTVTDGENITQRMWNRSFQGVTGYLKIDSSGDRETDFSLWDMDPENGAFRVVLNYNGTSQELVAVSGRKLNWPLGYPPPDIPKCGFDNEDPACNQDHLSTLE
Briefly: Surface plasmon resonance binding to GC-A receptor. The note with it: acetate salt, SPR 25° C., 1:1 Langmuir model; for kon: read-out: ka association rate; for koff: read-out: kd dissociation rate. Here is the method: Surface plasmon resonance (SPR) measurements were performed at 25° C. on a BI-4500 SPR instrument (Biosensing Instrument Inc. Tempe AZ). As per the instructions by the Biosensing instrument manual, 400 mM nickel sulfate in deionized water was linked to the Ni-NTA sensor chip (Biosensing Instrument Inc. Tempe AZ. Then 30 μg/ml of extracellular domain human GC-A recombinant protein (My BioSource, Inc. San Diego, CA), containing 12 histidine residues on the C-terminus, was then immobilized to the nickel sulfate on the Ni-NTA sensor chip. After, the chip was washed with buffer (150 mM NaCl, 50 μM EDTA pH 7.4, 0).1% DMSO), then 100 μL of sequentially diluted Compound 3 acetate salt (0.125, 0.25, 0.5, 1, 2 μM), Compound 1 acetate salt (6.25, 12.5, 25, 50, 100 nM) or Compound 2 acetate salt (0.125, 0.25, 0.5, 1, 2 μM) was injected at the rate of 60 ul/min and allowed to dissociate for 60 seconds. Data was collected as sensorgrams. Binding kinetics were derived from sensorgrams using BI-Data Analysis Program (Biosensing Instrument, Tempe AZ). Affinity analysis of GC-A with Compound 3, Compound 2 and/or Compound 1 interactions were performed using a 1:1 Langmuir binding model. Two series were performed for all studies.

Test [2] has as its system spontaneously hypertensive rats. Briefly: In vivo actions in spontaneously hypertensive rats (cGMP, blood pressure, renal function). Also on record: species or system rat. The note with it: acetate salt, 10 mg/kg single IV bolus, SHR; for plasma cGMP: 15 minutes after administration; for diastolic blood pressure: 60 minutes post-bolus; for diastolic blood pressure / urinary sodium excretion / urinary volume / systolic blood pressure: vs vehicle (and Compound 2); for urinary sodium excretion / urinary volume: post-bolus; for systolic blood pressure: throughout 60 minutes post bolus. Here is the method:
The cGMP generating, blood pressure lowering and renal enhancing actions of a single intravenous (IV) bolus dose of Compound 3, Compound 1 or Compound 2 acetate salt (n=4/small molecule form: 10 mg/kg) or Vehicle (n=5: 15% DMSO/60% PEG300/25% PBS) in spontaneously hypertensive rats (SHRs; male: 12 weeks old) were investigated. Studies were performed in accordance with the Animal Welfare Act and with approval of the Mayo Clinic Institutional Animal Care and Use Committee.
SHRs were administered Inactin (100 mg/kg: IP) to induce anesthesia and then maintained with additional Inactin (100 mg/kg: IP), as required. Once adequate anesthesia was achieved, the anesthetized SHRs were placed on a heating table set at 37° C. to maintain body temperature for the entire study and then were subjected to vessel and bladder cannulation. A polyethylene (PE)-50 tube catheter was placed into the jugular vein for saline, Compound 3, Compound 1, Compound 2 or vehicle IV administration. The carotid artery was cannulated with a PE-50 tube catheter for blood pressure monitoring (Sonometrics, London, Ontario, Canada) and blood sampling/collection. The bladder was accessed and cannulated with a PE-90 tube catheter for passive urine collection. After completion of the procedural set up, a 45-minute equilibration period was performed that included continuous IV saline infusion, a 30-minute baseline (pre-bolus) urine collection and a single baseline blood sample at the end of the 30-minute baseline urine collection. […] BP was monitored and recorded, beginning prior to IV bolus administration (0-minute post-bolus) and then at 15, 30, 45 and 60 minutes post-bolus. At the end of the 60-minute clearance, the anesthetized rats were euthanized by exsanguination and all blood and urine samples were stored at −80° C. until assayed. Plasma and urinary cGMP levels were measured using a cGMP ELISA kit (Enzo Life Sciences, Farmingdale, NY) as instructed by the manufacturer. Urinary sodium concentrations were determined with an electrolyte analyzer (Diamond Diagnostics Inc., Holliston, MA).

As to `CN(C)CCN1CCCC(C(=O)Nc2nc3c(F)cc(F)cc3s2)C1` (racemic) [Compound 3, N-(4,6-difluorobenzo[d]thiazol-2-yl)-1-(2-(dimethylamino)ethyl) piperidine-3-carboxamide], in test [1], the Kd – broadly, the concentration at which binding is half-saturated – was determined as 176 nM; the kon stood at 113000 M⁻¹ s⁻¹; the koff came out at 0.02 s⁻¹. Further, in test [2], the “plasma cGMP” value was “increase”, the “urinary cGMP” value was “increase”, the diastolic blood pressure entry is “greater reduction” and the urinary sodium excretion entry was “greater increase”. In addition, in test [2], the urinary volume entry is “greater increase” and the systolic blood pressure entry was “greater reduction”.

For `CN(C)CCN1CCC[C@H](C(=O)Nc2nc3c(F)cc(F)cc3s2)C1` [Compound 1, (S)-N-(4,6-difluorobenzo[d]thiazol-2-yl)-1-(2-(dimethylamino)ethyl) piperidine-3-carboxamide], in test [1], the dissociation constant (Kd) amounted to 12 nM, the kon stood at 1.09e+06 M⁻¹ s⁻¹ and the koff was 0.014 s⁻¹. Besides, in test [2], the “plasma cGMP” value is given as “increase”, the “urinary cGMP” value is “increased”, the diastolic blood pressure entry is reported as “more effective” and the urinary sodium excretion result was “more effective”. Moreover, in test [2], the urinary volume result is listed as “more effective” and the systolic blood pressure result is on record as “more effective”.

In the case of `CN(C)CCN1CCC[C@@H](C(=O)Nc2nc3c(F)cc(F)cc3s2)C1` [Compound 2, (R)-N-(4,6-difluorobenzo[d]thiazol-2-yl)-1-(2-(dimethylamino)ethyl) piperidine-3-carboxamide], in test [1], the Kd came to 121 nM, the kon amounted to 430000 M⁻¹ s⁻¹ and the koff was 0.052 s⁻¹. Besides, in test [2], the “plasma cGMP” value is listed as “increase” and the “urinary cGMP” value was “did not increase”.
